Source: ChEMBL document CHEMBL1201862, “PubChem BioAssay data set” (2004)
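All cell lines were grown in 96-well plates and treated with compound for 48 hours. GI50 = concentration required for 50% inhibition of growth.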 Active and inactive are the calls of the source. Rule as the data show it: active = GI50 up to about 1.1 µM and inactive = higher.

How the values were obtained:
Test in all cases: inhibition of tumour cell growth, NCI panel, 48 h
[1] = system: OVCAR-3
[2] = system: HCC 2998
[3] = system: MDA-MB-231
[4] = system: OVCAR-8
[5] = system: SK-OV-3
[6] = system: SF-295
[7] = system: UACC-257
[8] = system: A549
[9] = system: Hs-578T
[10] = system: NCI-H522
[11] = system: LOX IMVI
[12] = system: ACHN
[13] = system: HT-29
[14] = system: SNB-19
[15] = system: DU-145
[16] = system: COLO 205
[17] = system: EKVX
[18] = system: HL-60
[19] = system: UACC-62
[20] = system: HOP-92
[21] = system: RXF 393
[22] = system: CCRF-CEM
[23] = system: SK-MEL-28
[24] = system: UO-31
[25] = system: SK-MEL-2
[26] = system: NCI/ADR-RES
[27] = system: Malme-3M
[28] = system: A498
[29] = system: SNB-75
[30] = system: HOP-62
[31] = system: BT-549
[32] = system: KM12
[33] = system: HCT-116
[34] = system: PC-3
[35] = system: 786-0
[36] = system: OVCAR-4
[37] = system: M14
[38] = system: NCI-H23
[39] = system: HCT-15
[40] = system: U-251
[41] = system: SW-620
[42] = system: K562
[43] = system: SK-MEL-5
[44] = system: CAKI-1
[45] = system: SN12C
[46] = system: MDA-N
[47] = system: MOLT-4
[48] = system: SR
[49] = system: SF-539
[50] = system: RPMI-8226
[51] = system: MDA-MB-435
[52] = system: IGROV-1
[53] = system: NCI-H460
[54] = system: MCF7
[55] = system: TK-10
[56] = system: NCI-H226
[57] = system: SF-268
[58] = system: OVCAR-5
[59] = system: T47D
[60] = system: KM-20L2
[61] = system: M19-MEL
[62] = system: LXFL 529
[63] = system: SNB-78

`O=C(c1ccccc1)c1ccc(C(c2c(O)c3ccccc3oc2=O)c2c(O)c3ccccc3oc2=O)cc1` was tested, and the GI50 [1] was 26.2 µM (inactive), the GI50 [2] was 21 µM (inactive) and the GI50 [3] was 26.7 µM (inactive). For the same compound, the GI50 [4] was 27 µM (inactive), the GI50 [5] was 18.9 µM (inactive) and the GI50 [6] was 21.2 µM (inactive). The GI50 [7] was 22.8 µM (inactive), the GI50 [8] was 26.9 µM (inactive) and the GI50 [9] was 24.7 µM (inactive). For the same compound, the GI50 [10] was 16.6 µM (inactive), the GI50 [11] was 29.9 µM (inactive) and the GI50 [12] was 20 µM (inactive). For the same compound, the GI50 [13] was 25.1 µM (inactive), the GI50 [14] was 19.6 µM (inactive) and the GI50 [15] was 31.2 µM (inactive). For the same compound, the GI50 [16] was 31.7 µM (inactive), the GI50 [17] was 28 µM (inactive) and the GI50 [18] was 34.1 µM (inactive). For the same compound, the GI50 [19] was 17.3 µM (inactive), the GI50 [20] was 18.5 µM (inactive) and the GI50 [21] was 27.2 µM (inactive). For the same compound, the GI50 [22] was 27.9 µM (inactive), the GI50 [23] was 28.8 µM (inactive) and the GI50 [24] was 14.8 µM (inactive). For the same compound, the GI50 [25] was 28.2 µM (inactive), the GI50 [26] was 22.9 µM (inactive) and the GI50 [27] was 17.9 µM (inactive). The GI50 [28] was 24.5 µM (inactive), the GI50 [29] was 19.1 µM (inactive) and the GI50 [30] was 28.7 µM (inactive). The GI50 [31] was 22.5 µM (inactive), the GI50 [32] was 18.7 µM (inactive) and the GI50 [33] was 26.7 µM (inactive). For the same compound, the GI50 [34] was 27 µM (inactive), the GI50 [35] was 21.2 µM (inactive) and the GI50 [36] was 26.9 µM (inactive). For the same compound, the GI50 [37] was 24.7 µM (inactive), the GI50 [38] was 20 µM (inactive) and the GI50 [39] was 30.5 µM. The GI50 [40] was 26.6 µM (inactive), the GI50 [41] was 43.9 µM (inactive) and the GI50 [42] was 33.5 µM (inactive). For the same compound, the GI50 [43] was 24.5 µM (inactive), the GI50 [44] was 16.8 µM (inactive) and the GI50 [45] was 28.4 µM (inactive). For the same compound, the GI50 [46] was 28.2 µM (inactive), the GI50 [47] was 19.5 µM (inactive) and the GI50 [48] was 20.1 µM (inactive). For the same compound, the GI50 [49] was 30.3 µM (inactive), the GI50 [50] was 18.5 µM (inactive) and the GI50 [51] was 29.4 µM (inactive). For the same compound, the GI50 [52] was 23.3 µM (inactive), the GI50 [53] was 40.8 µM (inactive) and the GI50 [54] was 34.5 µM (inactive). The GI50 [55] was 17.9 µM (inactive), the GI50 [56] was 23.3 µM (inactive) and the GI50 [57] was 22.5 µM (inactive). For the same compound, the GI50 [58] was 23.4 µM (inactive) and the GI50 [59] was 34.2 µM (inactive).
For `COc1ccc2c(c1)CC[C@@H]1C2CC[C@]2(C)C(=O)N(CCN3CCCCC3)C(=O)CC12` (stereo partly drawn), the GI50 [5] was > 100 µM (inactive), the GI50 [6] was > 100 µM (inactive) and the GI50 [7] was 44.3 µM (inactive). For the same compound, the GI50 [10] was 78.9 µM (inactive), the GI50 [12] was > 100 µM (inactive) and the GI50 [13] was 51.5 µM (inactive). The GI50 [14] was > 100 µM (inactive), the GI50 [60] was 47.6 µM (inactive) and the GI50 [16] was > 100 µM (inactive). The GI50 [18] was 21.6 µM (inactive), the GI50 [19] was 21.2 µM (inactive) and the GI50 [20] was 44.5 µM (inactive). The GI50 [21] was 31.9 µM (inactive), the GI50 [22] was 75.5 µM (inactive) and the GI50 [23] was 34.8 µM (inactive). For the same compound, the GI50 [24] was 83.2 µM (inactive), the GI50 [25] was 60.3 µM (inactive) and the GI50 [27] was 57.3 µM (inactive). The GI50 [28] was 36.4 µM (inactive), the GI50 [29] was 58.5 µM (inactive) and the GI50 [30] was > 100 µM (inactive). For the same compound, the GI50 [32] was > 100 µM (inactive), the GI50 [33] was > 100 µM (inactive) and the GI50 [35] was > 100 µM (inactive). The GI50 [36] was > 100 µM (inactive), the GI50 [37] was 21.3 µM (inactive) and the GI50 [38] was > 100 µM (inactive). For the same compound, the GI50 [40] was > 100 µM (inactive), the GI50 [42] was 58.1 µM (inactive) and the GI50 [47] was > 10 µM (inactive). For the same compound, the GI50 [48] was 75.3 µM (inactive), the GI50 [49] was > 100 µM (inactive) and the GI50 [61] was 35.8 µM (inactive). For the same compound, the GI50 [62] was > 100 µM (inactive), the GI50 [50] was 74.5 µM (inactive) and the GI50 [52] was > 100 µM (inactive). For the same compound, the GI50 [53] was > 100 µM (inactive), the GI50 [63] was > 100 µM (inactive) and the GI50 [57] was > 100 µM (inactive). For the same compound, the GI50 [58] was > 100 µM (inactive).
In the case of `NC(=O)c1ccc2c(c1)S(=O)(=O)c1ccccc1C2=O`, the GI50 [1] is reported as > 100 µM (inactive), the GI50 [2] is reported as > 100 µM (inactive) and the GI50 [3] is reported as 65.2 µM (inactive). For the same compound, the GI50 [4] was 33.1 µM (inactive), the GI50 [5] was 75 µM (inactive) and the GI50 [6] was 57.8 µM (inactive). The GI50 [7] was > 100 µM (inactive), the GI50 [8] was > 100 µM (inactive) and the GI50 [9] was 58.6 µM (inactive). For the same compound, the GI50 [10] was > 100 µM (inactive), the GI50 [11] was > 100 µM (inactive) and the GI50 [12] was > 100 µM (inactive). The GI50 [13] was > 100 µM (inactive), the GI50 [14] was > 100 µM (inactive) and the GI50 [15] was > 100 µM (inactive). For the same compound, the GI50 [16] was > 100 µM (inactive), the GI50 [17] was 10 µM (inactive) and the GI50 [18] was > 100 µM (inactive). The GI50 [19] was > 100 µM (inactive), the GI50 [20] was 63.2 µM (inactive) and the GI50 [21] was > 100 µM (inactive). The GI50 [22] was > 100 µM (inactive), the GI50 [23] was > 100 µM (inactive) and the GI50 [24] was > 100 µM (inactive). The GI50 [25] was > 100 µM (inactive), the GI50 [26] was > 100 µM (inactive) and the GI50 [27] was > 100 µM (inactive). The GI50 [28] was > 100 µM (inactive), the GI50 [29] was 46.8 µM (inactive) and the GI50 [30] was 45 µM (inactive). For the same compound, the GI50 [31] was > 100 µM (inactive), the GI50 [32] was > 100 µM (inactive) and the GI50 [33] was > 100 µM (inactive). The GI50 [34] was > 100 µM (inactive), the GI50 [35] was 64.6 µM (inactive) and the GI50 [36] was > 100 µM (inactive). The GI50 [37] was > 100 µM (inactive), the GI50 [38] was > 100 µM (inactive) and the GI50 [39] was greater than 100 µM. For the same compound, the GI50 [40] was 73.3 µM (inactive), the GI50 [41] was > 100 µM (inactive) and the GI50 [42] was > 100 µM (inactive). The GI50 [43] was > 100 µM (inactive), the GI50 [44] was > 100 µM (inactive) and the GI50 [45] was > 100 µM (inactive). For the same compound, the GI50 [46] was > 100 µM (inactive), the GI50 [47] was > 100 µM (inactive) and the GI50 [48] was > 100 µM (inactive). The GI50 [49] was 46.6 µM (inactive), the GI50 [50] was > 100 µM (inactive) and the GI50 [51] was > 100 µM (inactive). The GI50 [52] was > 100 µM (inactive), the GI50 [53] was > 100 µM (inactive) and the GI50 [54] was > 100 µM (inactive). For the same compound, the GI50 [55] was > 100 µM (inactive), the GI50 [56] was > 100 µM (inactive) and the GI50 [57] was 35.9 µM (inactive). For the same compound, the GI50 [58] was > 100 µM (inactive) and the GI50 [59] was > 100 µM (inactive).
